ChEMBL document CHEMBL1933003, “Cytotoxic esterified diterpenoid alkaloid derivatives with increased selectivity against a drug-resistant cancer cell line” (Bioorg Med Chem Lett, 2012)

Key:
DU-145 = assay: Cytotoxicity against human DU145 cells by sulforhodamine B assay; assay type: functional, cell-based
A549 = assay: Cytotoxicity against human A549 cells by sulforhodamine B assay; assay type: functional, cell-based
KB [1] = assay: Cytotoxicity against human KB cells by sulforhodamine B assay; assay type: functional, cell-based
KB [2] = assay: Cytotoxicity against multi-drug resistant variant vincristine resistant human KB cells expressing P-glycoprotein by sulforhodamine B assay; assay type: functional, cell-based
KB [3] = assay: Selectivity ratio of EC50 for human KB cells to EC50 for multi-drug resistant variant vincristine resistant human KB cells expressing P-glycoprotein by sulforhodamine B assay; assay type: functional

Compound: CC(=O)O[C@H]1C(=O)[C@@]2(C)[C@H]([C@H](OC(=O)c3ccccc3)[C@]3(O)C[C@H](OC(=O)[C@H](O)[C@@H](NC(=O)c4ccccc4)c4ccccc4)C(C)=C1C3(C)C)[C@]1(OC(C)=O)CO[C@@H]1C[C@@H]2O [PACLITAXEL]
- EC50 (DU-145): 0.0059 µM
- EC50 (A549): 0.0064 µM
- EC50 (KB [1]): 0.006 µM
- EC50 (KB [2]): 0.76 µM

Compound: CCN1C[C@]2(C)CC[C@H](OC)[C@@]34[C@@H]5C[C@H]6[C@H](OC)[C@@H]5[C@@]5(C[C@@H]6OC)OCO[C@@]5([C@@H](OC(=O)c5cccc(C(F)(F)F)c5)[C@H]23)[C@@H]14
- EC50 (DU-145): 12.6 µM
- EC50 (A549): > 20 µM
- EC50 (KB [1]): 14.9 µM
- Ratio EC50 (KB [3]): 1.25
- EC50 (KB [2]): 11.9 µM

Compound: CCN1C[C@]2(C)CC[C@H](OC)[C@@]34[C@@H]5C[C@H]6[C@H](OC)[C@@H]5[C@@]5(C[C@@H]6OC)OCO[C@@]5([C@@H](OC(=O)/C=C/c5cccc(C(F)(F)F)c5)[C@H]23)[C@@H]14
- EC50 (DU-145): 15.1 µM
- EC50 (A549): 10.2 µM
- EC50 (KB [1]): > 20 µM
- Ratio EC50 (KB [3]): >2.31
- EC50 (KB [2]): 9.1 µM

Compound: CCN1C[C@]2(C)CC[C@H](OC)[C@@]34[C@@H]5C[C@H]6[C@H](OC)[C@@H]5[C@@]5(C[C@@H]6OC)OCO[C@@]5([C@@H](OC(=O)c5ccc(C(F)(F)F)nc5)[C@H]23)[C@@H]14
- EC50 (DU-145): > 20 µM
- EC50 (A549): > 20 µM
- EC50 (KB [1]): > 20 µM
- EC50 (KB [2]): 18.7 µM

Compound: CCN1C[C@]2(C)CC[C@H](OC)[C@@]34[C@@H]5C[C@H]6[C@H](OC)[C@@H]5[C@](O)(C[C@@H]6OC)[C@](O)([C@@H](OC(=O)c5cccc(C(F)(F)F)c5)[C@H]23)[C@@H]14
- EC50 (DU-145): > 20 µM
- EC50 (A549): > 20 µM
- EC50 (KB [1]): > 20 µM
- EC50 (KB [2]): > 20 µM

Compound: CCN1C[C@]2(C)CC[C@H](OC)[C@@]34[C@@H]5C[C@H]6[C@H](OC)[C@@H]5[C@@]5(C[C@@H]6OC)OCO[C@@]5([C@@H](OC(=O)/C=C/c5ccc(F)cc5)[C@H]23)[C@@H]14
- EC50 (DU-145): > 20 µM
- EC50 (A549): > 20 µM
- EC50 (KB [1]): > 20 µM
- EC50 (KB [2]): > 20 µM

Compound: CCN1C[C@]2(C)CC[C@H](OC)[C@@]34C1[C@@]1(OCO[C@@]15C[C@H](OC)[C@H]1C[C@@H]3[C@@H]5[C@H]1OC)[C@@H](OC(=O)c1ccc([N+](=O)[O-])cc1)[C@H]24 (single isomer, unassigned)
- EC50 (DU-145): 17.2 µM
- EC50 (A549): > 20 µM
- EC50 (KB [1]): > 20 µM
- EC50 (KB [2]): 17.7 µM

Compound: CCN1C[C@]2(C)CC[C@H](OC)[C@@]34C1[C@@]1(OCO[C@@]15C[C@H](OC)[C@H]1C[C@@H]3[C@@H]5[C@H]1OC)[C@@H](OC(=O)c1cc(F)c(F)c(F)c1)[C@H]24 (single isomer, unassigned)
- EC50 (DU-145): 16.9 µM
- EC50 (A549): 19.9 µM
- EC50 (KB [1]): 14.6 µM
- Ratio EC50 (KB [3]): 2.15
- EC50 (KB [2]): 6.8 µM

Compound: CCN1C[C@]2(C)CC[C@H](OC)[C@@]34C1[C@@]1(OCO[C@@]15C[C@H](OC)[C@H]1C[C@@H]3[C@@H]5[C@H]1OC)[C@@H](OC(=O)c1ccc(OC)cc1)[C@H]24 (single isomer, unassigned)
- EC50 (DU-145): > 20 µM
- EC50 (A549): > 20 µM
- EC50 (KB [1]): > 20 µM
- EC50 (KB [2]): > 20 µM

Compound: CCN1C[C@]2(C)CC[C@H](OC)[C@@]34[C@@H]5C[C@H]6[C@H](OC)[C@@H]5[C@@]5(C[C@@H]6OC)OCO[C@@]5([C@@H](OC(=O)c5ccc(F)c(C)c5)[C@H]23)[C@@H]14
- EC50 (DU-145): 19.8 µM
- EC50 (A549): > 20 µM
- EC50 (KB [1]): 12.1 µM
- Ratio EC50 (KB [3]): 2.57
- EC50 (KB [2]): 4.71 µM

Compound: CCN1C[C@]2(C)CC[C@H](OC)[C@@]34C1[C@@]1(OCO[C@@]15C[C@H](OC)[C@H]1C[C@@H]3[C@@H]5[C@H]1O)[C@@H](O)[C@H]24 [DELPHELINE]
- EC50 (DU-145): > 20 µM
- EC50 (A549): > 20 µM
- EC50 (KB [1]): > 20 µM
- EC50 (KB [2]): > 20 µM

Compound: CCN1C[C@]2(C)CC[C@H](OC)[C@@]34[C@@H]5C[C@H]6[C@H](OC)[C@@H]5[C@](O)(C[C@@H]6OC)[C@](O)([C@@H](O)[C@H]23)[C@@H]14
- EC50 (DU-145): > 20 µM
- EC50 (A549): > 20 µM
- EC50 (KB [1]): > 20 µM
- EC50 (KB [2]): > 20 µM

Compound: CCN1C[C@]2(C)CC[C@H](OC)[C@@]34C1[C@@]1(OCO[C@@]15C[C@H](OC)[C@H]1C[C@@H]3[C@@H]5[C@H]1OC)[C@@H](OC(=O)c1cc([N+](=O)[O-])cc([N+](=O)[O-])c1)[C@H]24 (single isomer, unassigned)
- EC50 (DU-145): > 20 µM
- EC50 (A549): > 20 µM
- EC50 (KB [1]): 19.1 µM
- EC50 (KB [2]): 20.3 µM

Compound: CCN1C[C@]2(C)CC[C@H](OC)[C@@]34[C@@H]5C[C@H]6[C@H](OC)[C@@H]5[C@@]5(C[C@@H]6OC)OCO[C@@]5(C(=O)[C@H]23)[C@@H]14 [PACININE]
- EC50 (DU-145): > 20 µM
- EC50 (A549): > 20 µM
- EC50 (KB [1]): > 20 µM
- EC50 (KB [2]): > 20 µM

Compound: CCN1C[C@]2(C)CC[C@H](OC)[C@@]34C1[C@@]1(OCO[C@@]15C[C@H](OC)[C@H]1C[C@@H]3[C@@H]5[C@H]1OC)[C@@H](OC(=O)c1ccc(-c3ccccc3)cc1)[C@H]24 (single isomer, unassigned)
- EC50 (DU-145): 17.1 µM
- EC50 (A549): > 20 µM
- EC50 (KB [1]): > 20 µM
- EC50 (KB [2]): 17.4 µM

Compound: CCOc1ccc(C(=O)O[C@H]2[C@@H]3[C@@]4(C)CC[C@H](OC)[C@]35C(N(CC)C4)[C@@]23OCO[C@@]32C[C@H](OC)[C@H]3C[C@@H]5[C@@H]2[C@H]3OC)cc1 (single isomer, unassigned)
- EC50 (DU-145): 15.6 µM
- EC50 (A549): 20 µM
- EC50 (KB [1]): 14.8 µM
- Ratio EC50 (KB [3]): 2.28
- EC50 (KB [2]): 6.5 µM

Compound: CCN1C[C@]2(C)CC[C@H](OC)[C@@]34C1[C@@]1(OCO[C@@]15C[C@H](OC)[C@H]1C[C@@H]3[C@@H]5[C@H]1OC)[C@@H](OC(=O)c1ccc(OC(F)(F)F)cc1)[C@H]24 (single isomer, unassigned)
- EC50 (DU-145): 20.3 µM
- EC50 (A549): 18.7 µM
- EC50 (KB [1]): 20.1 µM
- EC50 (KB [2]): 18.9 µM

Compound: CCN1C[C@]2(C)CC[C@H](OC)[C@@]34[C@@H]5C[C@H]6[C@H](OC)[C@@H]5[C@@]5(C[C@@H]6OC)OCO[C@@]5([C@@H](OC(=O)c5ccc(Cl)cc5)[C@H]23)[C@@H]14
- EC50 (DU-145): 7.4 µM
- EC50 (A549): 14.8 µM
- EC50 (KB [1]): 8.85 µM
- Ratio EC50 (KB [3]): 1.07
- EC50 (KB [2]): 8.27 µM

Compound: CCN1C[C@]2(C)CC[C@H](OC)[C@@]34C1[C@@]1(OCO[C@@]15C[C@H](OC)[C@H]1C[C@@H]3[C@@H]5[C@H]1OC)[C@@H](OC(=O)c1cc(OC)c(OC)c(OC)c1)[C@H]24 (single isomer, unassigned)
- EC50 (DU-145): > 20 µM
- EC50 (A549): > 20 µM
- EC50 (KB [1]): > 20 µM
- EC50 (KB [2]): > 20 µM

Compound: CCN1C[C@]2(C)CC[C@H](OC)[C@@]34[C@@H]5C[C@H]6[C@H](OC)[C@@H]5[C@@]5(C[C@@H]6OC)OCO[C@@]5([C@@H](OC(=O)c5ccc(OCc6ccccc6)cc5)[C@H]23)[C@@H]14
- EC50 (DU-145): 13.2 µM
- EC50 (A549): 14.1 µM
- EC50 (KB [1]): 6.76 µM
- Ratio EC50 (KB [3]): 1.6
- EC50 (KB [2]): 4.22 µM

Compound: CCN1C[C@]2(C)CC[C@H](OC)[C@@]34C1[C@@]1(OCO[C@@]15C[C@H](OC)[C@H]1C[C@@H]3[C@@H]5[C@H]1OC)[C@@H](OC(=O)c1ccc(C(=O)OC)cc1)[C@H]24 (single isomer, unassigned)
- EC50 (DU-145): > 20 µM
- EC50 (A549): > 20 µM
- EC50 (KB [1]): > 20 µM
- EC50 (KB [2]): > 20 µM

Compound: CCN1C[C@]2(C)CC[C@H](OC)[C@@]34[C@@H]5C[C@H]6[C@H](O)[C@@H]5[C@@]5(C[C@@H]6OC)OCO[C@@]5(C(=O)[C@H]23)[C@@H]14 [YUNNADELPHININE]
- EC50 (DU-145): > 20 µM
- EC50 (A549): > 20 µM
- EC50 (KB [1]): > 20 µM
- EC50 (KB [2]): > 20 µM

Compound: CCN1C[C@]2(C)CC[C@H](OC)[C@@]34C1[C@@]1(OCO[C@@]15C[C@H](OC)[C@H]1C[C@@H]3[C@@H]5[C@H]1OC)[C@@H](OC(=O)c1ccc(SC(F)(F)F)cc1)[C@H]24 (single isomer, unassigned)
- EC50 (DU-145): 16.6 µM
- EC50 (A549): > 20 µM
- EC50 (KB [1]): > 20 µM
- EC50 (KB [2]): 17.9 µM

Compound: CCN1C(=O)[C@]2(C)CC[C@H](OC)[C@@]34[C@@H]5C[C@H]6[C@H](OC)[C@@H]5[C@@]5(C[C@@H]6OC)OCO[C@@]5([C@@H](O)[C@@H]32)[C@@H]14
- EC50 (DU-145): > 20 µM
- EC50 (A549): > 20 µM
- EC50 (KB [1]): > 20 µM
- EC50 (KB [2]): > 20 µM

Compound: CCN1C[C@]2(C)CC[C@H](OC)[C@@]34[C@@H]5C[C@H]6[C@H](OC)[C@@H]5[C@@]5(C[C@@H]6OC)OCO[C@@]5([C@@H](OC(=O)c5ccc(C(F)(F)F)c(F)c5)[C@H]23)[C@@H]14
- EC50 (DU-145): 11.3 µM
- EC50 (A549): 16.5 µM
- EC50 (KB [1]): 5.44 µM
- Ratio EC50 (KB [3]): 1.24
- EC50 (KB [2]): 4.4 µM

Compound: CCN1C[C@]2(C)CC[C@H](OC)[C@@]34C1[C@@]1(OCO[C@@]15C[C@H](OC)[C@H]1C[C@@H]3[C@@H]5[C@H]1OC)[C@@H](OC(=O)c1ccc(F)cc1)[C@H]24 (single isomer, unassigned)
- EC50 (DU-145): 15.6 µM
- EC50 (A549): > 20 µM
- EC50 (KB [1]): > 20 µM
- EC50 (KB [2]): 15 µM
